From patent publication US6716873B1, “Tocopherol ester compounds” (Yasoo Health Inc., priority 2003, dated 2004)

Legend:
MDA-MB-231 cells = experiment: Cell growth/viability assay with tetrazolium salt WST-8 (OD 450 nm); conditions: MDA-MB-231 (ER-negative); after 6 days of incubation
Procedure: Cultures of MDA-MB-231 cells were maintained at 37° C. in minimum essential medium containing 3.7 g of NaHCO3 per liter of water, supplemented with 10% (v/v) Fetal Bovine Serum and 1% Penicillin/Streptomycin (broad spectrum antibiotics). […] The media were equilibrated with a humidified atmosphere of 5% CO2. Stock cultures were seeded at a density of 200×10^3 cells/mL and allowed to multiply to confluence. The cells were grown at 37° C. in a humidified atmosphere containing 5% CO2 and passaged when confluent using 0.25% trypsin.
The same amount of ethanol was added to the control samples. Stock solutions were maintained at 4° C.
Cell viability assays. The first method employs a novel tetrazolium salt, WST-8 [2-methoxy-4-nitrophenyl)-3(4-nitrophenyl)-5-(2,4-disulphophenyl)-2-H-tetrazolium, monosodium salt] which produces a highly water-soluble formazan dye generated by dehydrogenases which are active in living cells in a culture medium. For initial growth assays, cell suspensions (5000 cells/100 μL/well) were dispensed onto 96-well microtiter plates and incubated at 37° C., 5% CO2 for 1-12 days. At distinct time intervals 10 μL of the WST-8 solution was added to each well and allowed to incubate for 2-4 hrs. A yellow formazan dye is developed only in living cells. […] The absorbance at 450 nm was measured using a microplate reader (EMS Reader with dispenser, Genesys Software) with a reference wavelength at 600 nm. […] For both methods, cell suspensions (5000 cells/100 μ□L culture media) were initially inoculated on a 96-well microplate and preincubated in an incubator for 48 hrs to allow attachment 10 μL of the stock solution of each compound was added so that the final concentration was equimolar for each compound corresponding to 10 µg/mL of VES.
Comparison of the effect of the different compounds on absorbance at the appropriate wavelength was made by analysis of variance (ANOVA).
Cells were seeded in triplicate in 96-well plates and incubated for 48 hrs to allow attachment. The different compounds were added at the indicated concentrations and allowed to incubate for an additional 4 days. The indicated incubation time previously was determined in a growth assay ats the time of maximal proliferation rate. Tetrazolium salt WST-8 (10 μL) was added to each well, the cells were allowed to incubate for 2 hours and optical density (OD) measurements of the yellow formazan dye were made at 450 nm.

MCF-7 cells [1] = experiment: Cell viability assay, crystal violet staining (OD620 of cell lysates); conditions: for OD620 of the cell lysates (crystal violet) / statistical significance of decrease in cell growth / effect on cell growth compared to control (FIG. 1): MCF-7; for OD620 of the cell lysates (crystal violet): equimolar concentrations corresponding to 10 μg/mL of VES; for statistical significance of decrease in cell growth: Day 7, day of maximal proliferation rate; for effect on cell growth compared to control (FIG. 1): equimolar concentrations
Procedure: (§1) Experimental media. […] Stock solutions were maintained at 4° C.
Cells were plated in triplicate in 96-well plates and allowed to attaach and reach confluence for 48 hours. On Day 2 test compounds were added at equimolar concentrations corresponding to 10 μg/mL of VES. Cell viability was determined at the specified times by staining with crystal violet and measuring the OD620 of the cell lysates.

MCF-7 cells [2] = experiment: Cell growth/viability assay with tetrazolium salt WST-8 (OD 450 nm); conditions: for inhibitory effect on cell viability (FIG. 2), in words: equimolar concentrations, incubation up to 10 days
Procedure: as §1
Equimolar concentrations of the different compounds were added on day 2 and allowed for incubation for the indicated time period.

[3] = Chemical stability (solid state, organic solvent, aqueous base by 1H NMR); type: physicochemical; conditions: pH=9, room temperature, one day
[4] = Stability in the culture media by TLC
[5] = Day 0, equimolar concentrations, added on day 2
[6] = Day 2, equimolar concentrations
[7] = Day 4, equimolar concentrations
[8] = Day 7, equimolar concentrations
[9] = Day 9, equimolar concentrations
[10] = Day 11, equimolar concentrations

SMILES	inhibition of cell growth (MDA-MB-231 cells) [%]	cytotoxic effect on MCF-7 cells (MCF-7 cells [1]; 3.26 μg/mL (equimolar to 10 μg/mL of VES)) [%]	OD620 of the cell lysates (crystal violet) (MCF-7 cells [1]; Day 0, added on Day 2)	OD620 of the cell lysates (crystal violet) (MCF-7 cells [1]; Day 2)	OD620 of the cell lysates (crystal violet) (MCF-7 cells [1]; Day 5)	statistical significance of decrease in cell growth (MCF-7 cells [1])	OD620 of the cell lysates (crystal violet) (MCF-7 cells [1]; Day 7)	OD620 of the cell lysates (crystal violet) (MCF-7 cells [1]; Day 9)	effect on cell growth compared to control (FIG. 1) (MCF-7 cells [1])	optical density (OD) of formazan dye at 450 nm (WST-8) (MCF-7 cells [2]; [5])	optical density (OD) of formazan dye at 450 nm (WST-8) (MCF-7 cells [2]; [6])	optical density (OD) of formazan dye at 450 nm (WST-8) (MCF-7 cells [2]; [7])	optical density (OD) of formazan dye at 450 nm (WST-8) (MCF-7 cells [2]; [8])	optical density (OD) of formazan dye at 450 nm (WST-8) (MCF-7 cells [2]; [9])	optical density (OD) of formazan dye at 450 nm (WST-8) (MCF-7 cells [2]; [10])	inhibitory effect on cell viability (FIG. 2), in words (MCF-7 cells [2])	decomposition of aqueous solution (1H NMR) [3]	stability in the culture media (TLC) [4]	cytotoxicity, in words (MCF-7 cells [2]; concentration equivalent to IC50)
O=c1[nH]cc(F)c(=O)[nH]1 [5-FU, 5-fluorouracil, reference compound]	31	–	–	–	–	–	–	–	–	–	–	–	–	–	–	–	–	–	–
O=[Se](=O)([O-])[O-].[Na+].[Na+] [Na Selenate, sodium selenate, reference compound]	–	100	0	0.07344	0.06117	statistically significant decrease in cell growth	0.082	0.05411	–	–	–	–	–	–	–	–	–	–	–
O=C(O)CC([Se]c1ccccc1)C(=O)O (stereo not shown) [PSSA, phenylselanyl-succinic acid]	31	–	0	0.3842	1.218	–	1.693	1.495	no measurable effect compared to control	0	0.9149	2.019	3.618	3.541	3.451	no inhibitory effect over the first 7 days of incubation	less than 5%	stable for more than one weak	–
Cc1c(C)c2c(c(C)c1OC(=O)C(CC(=O)O)[Se]c1ccccc1)CC[C@@](C)(CCC[C@H](C)CCC[C@H](C)CCCC(C)C)O2 (stereo partly drawn) [PSSA-α-Toc, 2-phenylselanyl-succinic acid RRR-α-tocopherol ester]	65	–	0	0.325	0.9504	statistically significant decrease in cell growth	1.227	1.162	inhibited cell growth much more effectively	0	0.7806	1.4215	2.998	2.812	2.105	most potent inhibitory effect throughout the culture period	–	stable for more than one weak	not cytotoxic
Cc1c(C)c2c(c(C)c1OC(=O)CCC(=O)O)CC[C@@](C)(CCC[C@H](C)CCC[C@H](C)CCCC(C)C)O2 [VES, RRR-α-tocopheryl succinate, reference compound]	44	–	–	–	–	–	–	–	–	0	0.8005	1.439	3.311	3.427	2.99	inhibited cell growth more effectively during the first 7 days of incubation	–	–	–
